Assay results as given in patent publication US20230293407A1, “Compositions Comprising (Bio)-Alkanediols with Antimicrobials for Product Protection” (Symrise AG, priority 2020, published 2023).

Experiments:
Assay in all cases: preservation efficacy test (PET), European Pharmacopoeia 5.1.3
Format in all cases: cell-based
Pseudomonas aeruginosa = conditions: for count at 2 days / count at 7 days / count at 14 days / count at 28 days: PA, use concentration in label; for PA germ count, 2 days / PA germ count, 7 days / PA germ count, 14 days / PA germ count, 28 days: substance at given % in test formulation
Staphylococcus aureus = conditions: for count at 2 days / count at 7 days / count at 14 days / count at 28 days: SA, use concentration in label; for count at 2 days / SA germ count, 2 days: 2 days after inoculation; for SA germ count, 7 days / SA germ count, 2 days / SA germ count, 14 days / SA germ count, 28 days: substance at given % in test formulation
Escherichia coli = conditions: for count at 2 days / count at 7 days / count at 14 days / count at 28 days: EC, use concentration in label; for EC germ count, 2 days / EC germ count, 7 days / EC germ count, 14 days / EC germ count, 28 days: substance at given % in test formulation
Candida albicans = conditions: for count at 2 days / count at 7 days / count at 14 days / count at 28 days: CA, use concentration in label; for count at 2 days: 2 days after inoculation; for CA germ count, 7 days / CA germ count, 14 days / CA germ count, 28 days: substance at given % in test formulation
Aspergillus brasiliensis = conditions: for count at 2 days / count at 7 days / count at 14 days / count at 28 days: AB, use concentration in label; for count at 2 days: 2 days after inoculation; for count at 14 days / AB germ count, 14 days: 14 days after inoculation; for count at 28 days / AB germ count, 28 days: 28 days after inoculation
[1] = 2 days after inoculation, o/w emulsion (Table 53)
[2] = 7 days after inoculation, o/w emulsion (Table 53)
[3] = 14 days after inoculation, o/w emulsion (Table 53)
[4] = 28 days after inoculation, o/w emulsion (Table 53)
[5] = 7 days after inoculation, listed as 0.1% 4-Hydroxyacetophenone
[6] = 14 days after inoculation, listed as 0.1% 4-Hydroxyacetophenone
[7] = substance at given % in test formulation

O=P(O)(O)O[C@H]1[C@H](OP(=O)(O)O)[C@@H](OP(=O)(O)O)[C@H](OP(=O)(O)O)[C@@H](OP(=O)(O)O)[C@H]1OP(=O)(O)O [0.4% phytic acid]
count at 2 days (Pseudomonas aeruginosa; 2 days after inoculation): 1
count at 7 days (Pseudomonas aeruginosa; 7 days after inoculation): 1
count at 14 days (Pseudomonas aeruginosa; 14 days after inoculation): 1
count at 28 days (Pseudomonas aeruginosa; 28 days after inoculation): 1
count at 2 days (Staphylococcus aureus): 1
count at 7 days (Staphylococcus aureus; 7 days after inoculation): 1
count at 14 days (Staphylococcus aureus; 14 days after inoculation): 1
count at 28 days (Staphylococcus aureus; 28 days after inoculation): 1
count at 2 days (Escherichia coli; 2 days after inoculation): 1
count at 7 days (Escherichia coli; 7 days after inoculation): 1
count at 14 days (Escherichia coli; 14 days after inoculation): 1
count at 28 days (Escherichia coli; 28 days after inoculation): 1
count at 2 days (Candida albicans): 640.000
count at 7 days (Candida albicans; 7 days after inoculation): 550.000
count at 14 days (Candida albicans; 14 days after inoculation): 570.000
count at 28 days (Candida albicans; 28 days after inoculation): 520.000
count at 2 days (Aspergillus brasiliensis): 510.000
count at 7 days (Aspergillus brasiliensis; 7 days after inoculation): 290.000
count at 14 days (Aspergillus brasiliensis): 180.000
count at 28 days (Aspergillus brasiliensis): 150.000

CC(=O)c1ccc(O)cc1 [4-Hydroxyacetophenone, reference compound]
germ count PA, 2 days (Pseudomonas aeruginosa; [1]): 1
germ count PA, 7 days (Pseudomonas aeruginosa; [2]): 1
germ count PA, 14 days (Pseudomonas aeruginosa; [3]): 1
germ count PA, 28 days (Pseudomonas aeruginosa; [4]): 1
number of microorganisms, 2 days (Pseudomonas aeruginosa; PET, Pseudomonas aeruginosa (PA), 2 days after inoculation): 1
number of microorganisms, 7 days (Pseudomonas aeruginosa; PET, Pseudomonas aeruginosa (PA), 7 days after inoculation): 1
number of microorganisms, 14 days (Pseudomonas aeruginosa; PET, Pseudomonas aeruginosa (PA), 14 days after inoculation): 1
number of microorganisms, 28 days (Pseudomonas aeruginosa; PET, Pseudomonas aeruginosa (PA), 28 days after inoculation): 1
germ count SA, 7 days (Staphylococcus aureus; [2]): 24.000
SA germ count, 7 days (Staphylococcus aureus; [5]): 78.000
germ count SA, 14 days (Staphylococcus aureus; [3]): 1
germ count SA, 28 days (Staphylococcus aureus; [4]): 1
number of microorganisms, 7 days (Staphylococcus aureus; PET, Staphylococcus aureus (SA), 7 days after inoculation): 24.000
number of microorganisms, 14 days (Staphylococcus aureus; PET, Staphylococcus aureus (SA), 14 days after inoculation): 1
number of microorganisms, 28 days (Staphylococcus aureus; PET, Staphylococcus aureus (SA), 28 days after inoculation): 1
germ count EC, 2 days (Escherichia coli; [1]): 110.000
EC germ count, 2 days (Escherichia coli; 2 days after inoculation, listed as 0.1% 4-Hydroxyacetophenone): 110.000
germ count EC, 7 days (Escherichia coli; [2]): 290
EC germ count, 7 days (Escherichia coli; [5]): 36
germ count EC, 14 days (Escherichia coli; [3]): 27
EC germ count, 14 days (Escherichia coli; [6]): 1
germ count EC, 28 days (Escherichia coli; [4]): 1
number of microorganisms, 2 days (Escherichia coli; PET, Escherichia coli (EC), 2 days after inoculation): 110.000
number of microorganisms, 7 days (Escherichia coli; PET, Escherichia coli (EC), 7 days after inoculation): 290
number of microorganisms, 14 days (Escherichia coli; PET, Escherichia coli (EC), 14 days after inoculation): 27
number of microorganisms, 28 days (Escherichia coli; PET, Escherichia coli (EC), 28 days after inoculation): 1
germ count CA, 7 days (Candida albicans; [2]): 170.000
CA germ count, 7 days (Candida albicans; [5]): 310.000
germ count CA, 14 days (Candida albicans; [3]): 130.000
CA germ count, 14 days (Candida albicans; [6]): 190.000
germ count CA, 28 days (Candida albicans; [4]): 55.000
CA germ count, 28 days (Candida albicans; 28 days after inoculation, listed as 0.1% 4-Hydroxyacetophenone): 100.000
number of microorganisms, 7 days (Candida albicans; PET, Candida albicans (CA), 7 days after inoculation): 170.000
number of microorganisms, 14 days (Candida albicans; PET, Candida albicans (CA), 14 days after inoculation): 130.000
number of microorganisms, 28 days (Candida albicans; PET, Candida albicans (CA), 28 days after inoculation): 55.000
AB germ count, 28 days (Aspergillus brasiliensis; substance at given % in test formulation, listed as 0.1% 4-Hydroxyacetophenone): 910.000

CCCCCCCC(=O)NO [0.4% caprylhydroxamic acid]
count at 2 days (Pseudomonas aeruginosa; 2 days after inoculation): 1
count at 7 days (Pseudomonas aeruginosa; 7 days after inoculation): 1
count at 14 days (Pseudomonas aeruginosa; 14 days after inoculation): 1
count at 28 days (Pseudomonas aeruginosa; 28 days after inoculation): 1
count at 2 days (Staphylococcus aureus): 1
count at 7 days (Staphylococcus aureus; 7 days after inoculation): 1
count at 14 days (Staphylococcus aureus; 14 days after inoculation): 1
count at 28 days (Staphylococcus aureus; 28 days after inoculation): 1
count at 2 days (Escherichia coli; 2 days after inoculation): 6.900
count at 7 days (Escherichia coli; 7 days after inoculation): 1
count at 14 days (Escherichia coli; 14 days after inoculation): 1
count at 28 days (Escherichia coli; 28 days after inoculation): 1
count at 2 days (Candida albicans): 210.000
count at 7 days (Candida albicans; 7 days after inoculation): 1
count at 14 days (Candida albicans; 14 days after inoculation): 1
count at 28 days (Candida albicans; 28 days after inoculation): 1
count at 2 days (Aspergillus brasiliensis): 810.000
count at 7 days (Aspergillus brasiliensis; 7 days after inoculation): 68.000
count at 14 days (Aspergillus brasiliensis): 180
count at 28 days (Aspergillus brasiliensis): 1

O=C([O-])CC[C@@H](C(=O)[O-])N(CC(=O)[O-])CC(=O)[O-].[Na+].[Na+].[Na+].[Na+]
count at 2 days (Pseudomonas aeruginosa; 2 days after inoculation): 43.000
count at 7 days (Pseudomonas aeruginosa; 7 days after inoculation): 95.000
count at 14 days (Pseudomonas aeruginosa; 14 days after inoculation): 510.000
count at 28 days (Pseudomonas aeruginosa; 28 days after inoculation): 350.000
count at 7 days (Staphylococcus aureus; 7 days after inoculation): 810.000
count at 2 days (Escherichia coli; 2 days after inoculation): 50.000
count at 7 days (Escherichia coli; 7 days after inoculation): 23.000
count at 14 days (Escherichia coli; 14 days after inoculation): 450.000
count at 14 days (Candida albicans; 14 days after inoculation): 200.000
count at 28 days (Candida albicans; 28 days after inoculation): 390.000
count at 7 days (Aspergillus brasiliensis; 7 days after inoculation): 440.000
count at 14 days (Aspergillus brasiliensis): 720.000
count at 28 days (Aspergillus brasiliensis): 660.000

Cc1ccc(C(C)C)c(O)c1 [0.1% Thymol]
count at 2 days (Pseudomonas aeruginosa; 2 days after inoculation): 1
count at 7 days (Pseudomonas aeruginosa; 7 days after inoculation): 1
count at 14 days (Pseudomonas aeruginosa; 14 days after inoculation): 1
count at 28 days (Pseudomonas aeruginosa; 28 days after inoculation): 1
count at 7 days (Staphylococcus aureus; 7 days after inoculation): 23.000
count at 14 days (Staphylococcus aureus; 14 days after inoculation): 120
count at 28 days (Staphylococcus aureus; 28 days after inoculation): 1
count at 2 days (Escherichia coli; 2 days after inoculation): 720.000
count at 7 days (Escherichia coli; 7 days after inoculation): 200.000
count at 14 days (Escherichia coli; 14 days after inoculation): 200
count at 28 days (Escherichia coli; 28 days after inoculation): 27
count at 2 days (Candida albicans): 69.000
count at 7 days (Candida albicans; 7 days after inoculation): 640.000
count at 14 days (Candida albicans; 14 days after inoculation): 180
count at 28 days (Candida albicans; 28 days after inoculation): 1.400
count at 2 days (Aspergillus brasiliensis): 580.000
count at 7 days (Aspergillus brasiliensis; 7 days after inoculation): 520.000
count at 14 days (Aspergillus brasiliensis): 290.000
count at 28 days (Aspergillus brasiliensis): 650.000

O=C(OCc1ccccc1)c1ccccc1O [0.2% Benzyl Salicylate]
PA germ count, 2 days (Pseudomonas aeruginosa; 2 days after inoculation): 1.200
PA germ count, 7 days (Pseudomonas aeruginosa; 7 days after inoculation): 790
PA germ count, 14 days (Pseudomonas aeruginosa; 14 days after inoculation): 160.000
PA germ count, 28 days (Pseudomonas aeruginosa; 28 days after inoculation): 44.000
SA germ count, 2 days (Staphylococcus aureus): 670.000
SA germ count, 7 days (Staphylococcus aureus; 7 days after inoculation): 9.200
SA germ count, 14 days (Staphylococcus aureus; 14 days after inoculation): 1
SA germ count, 28 days (Staphylococcus aureus; 28 days after inoculation): 1
EC germ count, 2 days (Escherichia coli; 2 days after inoculation): 250.000
EC germ count, 7 days (Escherichia coli; 7 days after inoculation): 13.000
EC germ count, 14 days (Escherichia coli; 14 days after inoculation): 640
EC germ count, 28 days (Escherichia coli; 28 days after inoculation): 430
CA germ count, 7 days (Candida albicans; 7 days after inoculation): 600.000
CA germ count, 14 days (Candida albicans; 14 days after inoculation): 370.000
CA germ count, 28 days (Candida albicans; 28 days after inoculation): 390.000
AB germ count, 14 days (Aspergillus brasiliensis; [7]): 750.000
AB germ count, 28 days (Aspergillus brasiliensis; [7]): 630.000

CC(=O)c1ccc(O)cc1 [0.1% 4-Hydroxyacetophenone (SymSave H)]
PA germ count, 2 days (Pseudomonas aeruginosa; 2 days after inoculation): 1
PA germ count, 7 days (Pseudomonas aeruginosa; 7 days after inoculation): 1
PA germ count, 14 days (Pseudomonas aeruginosa; 14 days after inoculation): 1
PA germ count, 28 days (Pseudomonas aeruginosa; 28 days after inoculation): 1
SA germ count, 2 days (Staphylococcus aureus): 210.000
SA germ count, 7 days (Staphylococcus aureus; 7 days after inoculation): 1
SA germ count, 14 days (Staphylococcus aureus; 14 days after inoculation): 1
SA germ count, 28 days (Staphylococcus aureus; 28 days after inoculation): 1
EC germ count, 7 days (Escherichia coli; 7 days after inoculation): 87.000
EC germ count, 14 days (Escherichia coli; 14 days after inoculation): 2.400
EC germ count, 28 days (Escherichia coli; 28 days after inoculation): 1
CA germ count, 7 days (Candida albicans; 7 days after inoculation): 81.000
CA germ count, 14 days (Candida albicans; 14 days after inoculation): 120
CA germ count, 28 days (Candida albicans; 28 days after inoculation): 1
AB germ count, 7 days (Aspergillus brasiliensis; 7 days after inoculation, substance at given % in test formulation): 680.000
AB germ count, 14 days (Aspergillus brasiliensis; [7]): 58.000
AB germ count, 28 days (Aspergillus brasiliensis; [7]): 18.000
